Where two headings read alike, the source gives them in different places.
Tests used:
[1] = tested on: repressor-promoter system of the KstD gene; experiment: steroid induction of KSTD activity in cell free extracts (DCPIP as electron acceptor, AD as substrate), SQ1; format: cell-based, Rhodococcus erythropolis SQ1
Procedure: 4-androstene-3,17-dione (AD) induction served as a positive control.
From induced cultures, cell free extracts were prepared as indicated above and tested for KSTD activity using DCPIP as an electron acceptor and AD as a substrate.
(§1) Further, it was investigated whether KSTD1 was constitutively expressed in R. erythropolis RG10. Cell free extracts were prepared from an AD-induced cell culture and from a non-induced cell culture. These extracts were tested for KSTD activity using DCPIP as an electron acceptor and AD as a substrate. For reasons of comparison, the same procedure was performed with R. erythropolis SQ1.

[2] = tested on: KSTD activity; conditions: gene disruption mutant SDH420; cited from earlier work
[3] = tested on: KSTD activity; experiment: KSTD activity in cell free extracts (DCPIP as electron acceptor, AD as substrate), RG10; format: cell-based, Rhodococcus erythropolis RG10; conditions: cell free extract of AD-induced culture
Procedure: as §1

| Compound | lifting of kstD promoter repression exerted by the kstR gene product ([1]; addition of steroid compound) | also measured |
| --- | --- | --- |
| C[C@@H]1CC2=CC(=O)CC[C@@H]2[C@H]2CC[C@]3(C)C(=O)CC[C@H]3[C@@H]21 [7α-methyl-nordione] | able to lift kstD promotor repression | – |
| C[C@]12CCC(=O)C=C1CC[C@H]1[C@@H]3CCC(=O)[C@@]3(C)CC[C@@]12O [9OHAD, 9α-hydroxy-4-androstene-3,17-dione] | – | lifting of kstD promoter repression exerted by the kstR gene product [1]: able to lift kstD promotor repression |
| C=C1C[C@]2(C)C(=O)CC[C@H]2[C@@H]2CCC3=CC(=O)CC[C@@H]3[C@@H]12 [11-methylene-nordione] | able to lift kstD promotor repression | – |
| C[C@]12CC[C@H]3C(=CCC4=CC(=O)CC[C@@]43CO)[C@@H]1CCC2=O [19-OH-7-dehydro-androstene-3,17-dione] | able to lift kstD promotor repression | – |
| C[C@]12CCC(=O)C=C1CC[C@@H]1[C@@H]2CC[C@]2(C)C(=O)CC[C@@H]12 [AD, 4-androstene-3,17-dione] | able to lift kstD promotor repression | induction of KSTD activity in R. erythropolis SQ1 ([1]; cell free extracts of induced cultures, DCPIP electron acceptor, AD substrate): detected; induction of wild-type KSTD activity in R. erythropolis SDH420 [2]: can be induced; KSTD activity in R. erythropolis RG10 [3]: present |
| C[C@]12C=CC(=O)C=C1CC[C@@H]1[C@@H]2CC[C@]2(C)C(=O)CC[C@@H]12 [ADD, 1,4-androstadiene-3,17-dione] | able to lift kstD promotor repression | – |
| C[C@]12CC[C@H]3[C@@H](CCC4=CC(=O)CC[C@@H]43)[C@@H]1CCC2=O [estr-4-ene-3,17-dione] | able to lift kstD promotor repression | – |
| CC(=O)[C@H]1CC[C@H]2[C@@H]3CC=C4C[C@@H](O)CC[C@]4(C)[C@H]3CC[C@]12C [pregnenolone] | able to lift kstD promotor repression | – |
| CC(=O)[C@H]1CC[C@H]2[C@@H]3CCC4=CC(=O)CC[C@]4(C)[C@H]3CC[C@]12C [progesterone] | able to lift kstD promotor repression | – |
| C[C@]12CCC(=O)C[C@@H]1CC[C@@H]1[C@@H]2CC[C@]2(C)[C@@H](O)CC[C@@H]12 [stanolone, 17β-OH-5α-androstane-3-on] | – | lifting of kstD promoter repression exerted by the kstR gene product [1]: able to lift kstD promotor repression |
| C[C@]12CC[C@H]3[C@@H](CCC4=CC(=O)CC[C@@]43C)[C@@H]1CC[C@@H]2O [testosterone] | – | lifting of kstD promoter repression exerted by the kstR gene product [1]: able to lift kstD promotor repression |

From US20060172423A1, “New expression system from rhodococcus” (priority 2002, published 2006)
